{"source": "paper PMC2453323", "about": "(PLoS Pathogens, 2008)", "format_in_all_cases": "biochemical", "key": {"[1]": {"molecular_target": "neuraminidase (H275Y) of A(H1N1) clinical isolate 0341/07 (Influenza A virus (H1N1), UniProt D5F1R0, D354G/H275Y)"}, "[2]": {"molecular_target": "neuraminidase (H275Y) of A(H1N1) clinical isolate 0749/07 (Influenza A virus (H1N1), UniProt D5F1R0, D354G/H275Y)"}, "[3]": {"molecular_target": "neuraminidase (H275Y) of A(H1N1) clinical isolate 0847/07 (Influenza A virus (H1N1), UniProt D5F1R0, D354G/H275Y)"}, "[4]": {"molecular_target": "neuraminidase (H275Y) of A(H1N1) clinical isolate 1208/08 (Influenza A virus (H1N1), UniProt G3LYR2)"}, "[5]": {"molecular_target": "neuraminidase (H275Y) of A(H1N1) clinical isolate 1154/08 (Influenza A virus (H1N1), UniProt G3LYR2)"}, "[6]": {"molecular_target": "neuraminidase (H275Y) of A(H1N1) clinical isolate 0963/08 (Influenza A virus (H1N1), UniProt G3LYR2, G354D)"}, "[7]": {"molecular_target": "neuraminidase (H275Y) of A(H1N1) clinical isolate 0644/07 (Influenza A virus (H1N1), UniProt D5F1R0, D354G/H275Y)"}, "[8]": {"molecular_target": "neuraminidase of A(H1N1) clinical isolate 0006/07 (Influenza A virus (H1N1), UniProt D5F1R0, K249G)"}, "[9]": {"molecular_target": "neuraminidase (H275Y) of A(H1N1) clinical isolate 0577/07 (Influenza A virus (H1N1), UniProt D5F1R0, D354G/H275Y)"}, "[10]": {"molecular_target": "neuraminidase (H275Y) of A(H1N1) clinical isolate 1157/08 (Influenza A virus (H1N1), UniProt G3LYR2, G214E)"}, "[11]": {"molecular_target": "neuraminidase (H275Y) of A(H1N1) clinical isolate 0910/08 (Influenza A virus (H1N1), UniProt G3LYR2)"}, "[12]": {"molecular_target": "neuraminidase (H275Y) of the 11 resistant H1N1 viruses from the 2007–2008 season (Influenza A virus (H1N1), UniProt G3LYQ1, H275Y)", "conditions": "read-out: Mean Km, group Mean"}, "[13]": {"molecular_target": "neuraminidase (H275Y) of A(H1N1) clinical isolate 1170/08 (Influenza A virus (H1N1), UniProt G3LYR2)"}}, "data": [{"smiles": "CC(=O)N[C@@H]1[C@@H](O)C[C@](Oc2ccc3c(C)cc(=O)oc3c2)(C(=O)O)O[C@H]1C(O)[C@H](O)CO", "note": "(stereo partly shown) [MUNANA]", "values": [{"measurement": "Km", "setting": "[1]", "value": 18, "unit": "µM"}, {"measurement": "Km", "setting": "[2]", "value": 18, "unit": "µM"}, {"measurement": "Km", "setting": "[3]", "value": 24, "unit": "µM"}, {"measurement": "Km", "setting": "[4]", "value": 19, "unit": "µM"}, {"measurement": "Km", "setting": "[5]", "value": 14.5, "unit": "µM"}, {"measurement": "Km", "setting": "[6]", "value": 18.4, "unit": "µM"}, {"measurement": "Km", "setting": "[7]", "value": 18.4, "unit": "µM"}, {"measurement": "Km", "setting": "[8]", "value": 12.4, "unit": "µM"}, {"measurement": "Km", "setting": "[9]", "value": 19.5, "unit": "µM"}, {"measurement": "Km", "setting": "[10]", "value": 20, "unit": "µM"}, {"measurement": "Km", "setting": "[11]", "value": 25, "unit": "µM"}, {"measurement": "Km", "setting": "[12]", "value": 19.4, "unit": "µM"}, {"measurement": "Km", "setting": "[13]", "value": 18.2, "unit": "µM"}]}]}
